PMC12281142, “A potent phenylalkylamine disrupts mycobacterial membrane bioenergetics and augments bactericidal activity of bedaquiline” (iScience, 2025)
≈ marks a conversion by molar mass, not a printed value. Like-named read-outs stand apart in the source and are kept apart here.

How the values were obtained:
[1] = tested on: Mab abscessus ATCC 19977; assay: MIC against Mab abscessus ATCC 19977; type: cell-based, Mycobacterium abscessus subsp. abscessus; conditions: for MIC90: read-out: MIC90 Mab abscessus ATCC 19977; for MIC50 Mab abscessus ATCC 19977: 3 days
[2] = tested on: Mab bolletii CCUG 50184-T; assay: MIC against Mab bolletii CCUG 50184-T; type: cell-based, Mycobacterium abscessus subsp. bolletii; conditions: for MIC50 Mab bolletii CCUG 50184-T: 3 days
[3] = tested on: Vero E6; assay: Cytotoxicity in Vero E6 cells; type: cell-based, African green monkey; conditions: 48 h, growth suppressed by 50% vs untreated
Method: (§1) To each well in a 96-well plate, 50,000 cells in 100 μL media were seeded. Vero E6 and HepG2 cells were incubated overnight in DMEM for cell adherence at 37°C and 5% CO2. The media was removed from the wells and 100 μL solution made up of fresh DMEM media (99 μL) and the test compound (1 μL from a DMSO stock solution that was […] more concentrated than the final concentration in the well) was then added to each well. DMSO content of each well was consistently kept at 0.5 %v/v. Treated plates were incubated for 48 h (5% CO2, 37°C), after which 10 μL of Celltitre 96 Aqueous One Solution was added to each well, without removal of media, and incubated for a further 3 h. Subsequently, absorbance readings were taken at 490 nm on a Tecan GENios Microplate Reader.
(§2) Cell viability was determined from the expression: Cellviability(%)={[Absorbance(cells+cpd)−Absorbance(cpd)]/[Absorbance(cells+vc)−Absorbance(vc)]}×100% where Absorbance (cells + cpd) = absorbance of wells containing cells and test compound in vehicle (media +0.5% DMSO); Absorbance (cpd) = absorbance of wells containing test compound in vehicle without cells (compound control); Absorbance (cells + vc) = absorbance of wells containing cells in vehicle (vc) only (untreated cells); Absorbance (vc) = absorbance of wells containing vehicle without cells (vehicle control). The percentage viability readings were plotted against log(concentration) on GraphPad Prism (Version 7.0, San Diego, CA) to give a sigmoidal curve, from which IC50, defined as the concentration of the compound that reduced cell viability by 50%, was obtained. At least 3 separate determinations were carried out.

[4] = tested on: Mab massiliense CCUG 48898-T; assay: MIC against Mab massiliense CCUG 48898-T; type: cell-based, Mycobacterium abscessus subsp. massiliense; conditions: for MIC50 Mab massiliense CCUG 48898-T: 3 days
[5] = tested on: Mtb H37Rv; assay: MIC by broth microdilution against Mtb H37Rv; type: cell-based, Mycobacterium tuberculosis; conditions: incubation 5 days; for MIC50 Mtb H37Rv: first value of cell MIC50/MIC90
[6] = tested on: M. bovis BCG; assay: microbe, parasite or virus in culture; type: cell-based, Mycobacterium bovis BCG
[7] = tested on: HepG2; assay: Cytotoxicity in HepG2 cells; type: cell-based, human; conditions: 48 h, growth suppressed by 50% vs untreated
Method: as §1, §2

[8] = tested on: M. bovis BCG; type: cell-based, Mycobacterium bovis BCG
[9] = tested on: M. bovis BCG; type: cell-based, Mycobacterium bovis BCG; remark: listed apart in the source
[10] = tested on: M. smegmatis mc2155; assay: MIC against M. smegmatis mc2155; type: cell-based, Mycobacterium smegmatis; conditions: Mycolicibacterium smegmatis
[11] = 7H9 medium (first value of cell)
[12] = CA-MHB medium (second value of cell)

SMILES	MIC90 ([1]; 7H9 broth (first value)) [µM]	MIC50 Mab abscessus ATCC 19977 [1, 11] [µM]	MIC50 Mab abscessus ATCC 19977 [1, 12] [µM]	MIC90 ([1]; camH broth (second value)) [µM]	MIC90 ([2]; 7H9 broth (first value)) [µM]	MIC50 Mab bolletii CCUG 50184-T [2, 11] [µM]	MIC50 Mab bolletii CCUG 50184-T [2, 12] [µM]	MIC90 ([2]; camH broth (second value)) [µM]	IC50 [3] [µM]	MIC90 ([4]; 7H9 broth (first value)) [µM]	MIC50 Mab massiliense CCUG 48898-T [4, 11] [µM]	MIC50 Mab massiliense CCUG 48898-T [4, 12] [µM]	MIC90 ([4]; camH broth (second value)) [µM]	MIC50 Mtb H37Rv [5]	MIC90 Mtb H37Rv [5]	MIC50 [6] [µM]	MIC50 BCG Without Glycerol [6] [µM]	MIC90 [6] [µM]	MIC90 (Table S1) [6] [µM]	IC50 [7] [µM]	further results
COc1ccc(CCN(C)CCCC(C#N)(CCC2CCCCC2)c2ccc(Cl)c(Cl)c2)cc1OC (centres unmarked) [PhA11]	> 250	> 250	175 (≈ 93 µg/mL)	> 250	> 250	> 250	160 (≈ 85.1 µg/mL)	> 250	57	> 250	> 250	21 (≈ 11.2 µg/mL)	> 250	19/40 μM	19/40 μM	14 (≈ 7.44 µg/mL)	46 (≈ 24.5 µg/mL)	25 (≈ 13.3 µg/mL)	25 (≈ 13.3 µg/mL)	44	MIC90 BCG [6]: 13 µg/mL (≈ 24.5 µM)
CCCCCCCCC(C#N)(CCCN(C)CCc1ccc(OC)c(OC)c1)c1ccc(Cl)c(Cl)c1 (centres unmarked) [PhA12]	> 250	> 250	194 (≈ 104 µg/mL)	> 250	> 250	> 250	72 (≈ 38.4 µg/mL)	> 250	69	> 250	> 250	31 (≈ 16.5 µg/mL)	> 250	23/46 μM	23/46 μM	16 (≈ 8.54 µg/mL)	35 (≈ 18.7 µg/mL)	29 (≈ 15.5 µg/mL)	29 (≈ 15.5 µg/mL)	51	MBC99.9 (10^3-fold kill) [8]: 4 x MIC90; MIC90 BCG [6]: 16 µg/mL (≈ 30 µM)
COc1ccc(CCN(C)CCCC(C#N)(CCC2CCCCC2)c2ccc(OC)c(OC)c2)cc1OC (centres unmarked) [PhA1]	115 (≈ 60.1 µg/mL)	76 (≈ 39.7 µg/mL)	25 (≈ 13.1 µg/mL)	54 (≈ 28.2 µg/mL)	109 (≈ 57 µg/mL)	97 (≈ 50.7 µg/mL)	22 (≈ 11.5 µg/mL)	61 (≈ 31.9 µg/mL)	51	106 (≈ 55.4 µg/mL)	100 (≈ 52.3 µg/mL)	15 (≈ 7.84 µg/mL)	125 (≈ 65.3 µg/mL)	19 µM (≈ 9.93 µg/mL)	–	12 (≈ 6.27 µg/mL)	21 (≈ 11 µg/mL)	–	25 (≈ 13.1 µg/mL)	34	CFUs above the detection limit [9]: 10–100 times; MBC99.9 (10^3-fold kill) [8]: 4 x MIC90; MIC90 ([5]; second value of cell MIC50/MIC90, read-out: MIC90 Mtb H37Rv): 43 µM (≈ 22.5 µg/mL); MIC50 BCG With Glycerol [6]: 12 µM (≈ 6.27 µg/mL)
COc1ccc(CCN(C)CCCC(C#N)(CCCCCCCN=[N+]=[N-])c2ccc(OC)c(OC)c2)cc1OC (centres unmarked) [AZ-2]	–	–	–	–	–	–	–	–	–	–	–	–	–	–	–	–	–	–	–	–	MIC50 ([10]; MC2155, 24 h, incubation 1 day, read-out: M. smegmatis mc2155 MIC50 (Table S4)): 38 µM (≈ 21 µg/mL); MIC90 ([10]; MC2155, 24 h, incubation 1 day, read-out: M. smegmatis mc2155 MIC90 (Table S4)): 58 µM (≈ 32 µg/mL); MIC90 ([10]; MC2155, read-out: MIC90 M. smegmatis): 58 µM (≈ 32 µg/mL); MIC90 ([6]; Mycobacterium tuberculosis variant bovis BCG, BCG, M. bovis BCG, broth dilution, growth reduced by 90% vs untreated): 27 µM (≈ 14.9 µg/mL); MIC50 ([6]; Mycobacterium tuberculosis variant bovis BCG, BCG, read-out: M. bovis BCG MIC50 (Table S4)): 12 µM (≈ 6.62 µg/mL); MIC90 ([6]; Mycobacterium tuberculosis variant bovis BCG, BCG, read-out: M. bovis BCG MIC90 (Table S4)): 27 µM (≈ 14.9 µg/mL)
